How the values were obtained:
[1] = molecular target: GDP-bound NRAS wild-type protein (Homo sapiens, UniProt P01111); test: Binding to NRAS by surface plasmon resonance (SPR), Single Cycle Kinetics; settings: for NRAS/KRAS (ratio of KD value for NRAS to KD value for KRAS): SPR, GDP-bound NRAS wild-type protein vs GDP-bound KRAS wild-type protein; for NRAS/KRAS (ratio of KD value with respect to GDP-bound NRAS wild-type protein to KD value with respect to KRAS): SPR KD ratio NRAS/KRAS, class symbols
[2] = molecular target: GDP-bound HRAS wild-type protein (Homo sapiens, UniProt P01112); test: Binding to HRAS by surface plasmon resonance (SPR), Single Cycle Kinetics; settings: for HRAS/KRAS (ratio of KD value for HRAS to KD value for KRAS): SPR, GDP-bound HRAS wild-type protein vs GDP-bound KRAS wild-type protein; for HRAS/KRAS (ratio of KD value with respect to GDP-bound HRAS wild-type protein to KD value with respect to KRAS): SPR KD ratio HRAS/KRAS, class symbols
Sequence of GDP-bound HRAS wild-type protein (P01112 whole entry): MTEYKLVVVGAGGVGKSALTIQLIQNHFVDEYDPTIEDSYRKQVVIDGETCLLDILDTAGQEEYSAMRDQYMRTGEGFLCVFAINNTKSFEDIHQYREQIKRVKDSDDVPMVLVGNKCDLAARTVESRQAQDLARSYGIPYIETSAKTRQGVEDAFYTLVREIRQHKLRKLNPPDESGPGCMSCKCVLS

Sequence of GDP-bound NRAS wild-type protein (P01111 whole entry): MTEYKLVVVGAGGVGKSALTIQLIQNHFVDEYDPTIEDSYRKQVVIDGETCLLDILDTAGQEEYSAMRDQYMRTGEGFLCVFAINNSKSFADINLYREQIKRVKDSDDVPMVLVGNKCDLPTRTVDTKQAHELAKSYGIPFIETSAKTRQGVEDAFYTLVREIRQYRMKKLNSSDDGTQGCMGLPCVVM

Row | SMILES | NRAS/KRAS (ratio of KD value for NRAS to KD value for KRAS) [1] | HRAS/KRAS (ratio of KD value for HRAS to KD value for KRAS) [2] | NRAS/KRAS (ratio of KD value with respect to GDP-bound NRAS wild-type protein to KD value with respect to KRAS) [1] | HRAS/KRAS (ratio of KD value with respect to GDP-bound HRAS wild-type protein to KD value with respect to KRAS) [2]
1 | CCC[C@H]1C(=O)N[C@@H]([C@@H](C)CC)C(=O)N(C)CC(=O)N(C)[C@H]2C/C=C\CCN(C2=O)[C@@H](Cc2ccc(C)cc2)C(=O)N(C)CC(=O)N[C@@H](CCc2ccc(C(F)(F)F)c(Cl)c2)C(=O)N2C[C@H](CC)C[C@H]2C(=O)NC2(CCC2)C(=O)N(C)[C@@H](C2CCCC2)C(=O)N(C)[C@H](C(=O)N(C)C)CC(=O)N1C [PP2237] | A (a compound having 10 or more and less than 20 is denoted as A) | A (a compound having 10 or more and less than 20 is denoted as A) |  | 
2 | CCC[C@H]1C(=O)N[C@@H](C2CCC2)C(=O)N(C)CC(=O)N(C)[C@H]2C/C=C\CCN(C2=O)[C@@H](Cc2ccc(C)cc2)C(=O)N(C)CC(=O)N[C@@H](CCc2ccc(C(F)(F)F)c(F)c2)C(=O)N2C[C@H](OCC)C[C@H]2C(=O)NC2(CC(C)(C)C2)C(=O)N(C)[C@@H](C2CCC2)C(=O)N(C)[C@H](C(=O)N(C)C)CC(=O)N1C [PP2242] | A (a compound having 10 or more and less than 20 is denoted as A) | A (a compound having 10 or more and less than 20 is denoted as A) |  | 
3 | CCO[C@@H]1C[C@H]2C(=O)NC3(CCC3)C(=O)N(C)[C@@H](C3CCCC3)C(=O)N(C)[C@H](C(=O)N(C)CC)CC(=O)N(C)[C@H]3CCCCCCc4ccc(cc4)C[C@@H](C(=O)N(C)CC(=O)N[C@@H](CCc4ccc(C(F)(F)F)c(OC)c4)C(=O)N2C1)N1CC/C=C\C[C@@H](C1=O)N(C)C(=O)CN(C)C(=O)[C@H]([C@@H](C)CC)NC3=O [PP2263] | A (a compound having 10 or more and less than 20 is denoted as A) | A (a compound having 10 or more and less than 20 is denoted as A) |  | 
4 | CCOC[C@H]1C(=O)N[C@@H]([C@@H](C)CC)C(=O)N(C2CC2)CC(=O)N(C)[C@H]2C/C=C\CCN(C2=O)[C@@H](Cc2ccc(C(F)(F)F)cc2)C(=O)N(C)CC(=O)N[C@@H](CCc2ccc(C(F)(F)F)c(OC)c2)C(=O)N2C[C@H](OCC)C[C@H]2C(=O)N(C)C2(CCC2)C(=O)N(C)[C@@H](C(CC)CC)C(=O)N(C)[C@H](C(=O)N(C)C)CC(=O)N1C [PP2315] | A (a compound having 10 or more and less than 20 is denoted as A) | A (a compound having 10 or more and less than 20 is denoted as A) |  | 
5 | CCCOC[C@H]1C(=O)N[C@@H]([C@@H](C)CC)C(=O)N(C2CC2)CC(=O)N(C)[C@H]2C/C=C\CCN(C2=O)[C@@H](Cc2ccc(C(F)(F)F)cc2)C(=O)N(C)CC(=O)N[C@@H](CCc2ccc(C(F)(F)F)c(OC)c2)C(=O)N2C[C@H](OCC)C[C@H]2C(=O)N(C)C2(CCC2)C(=O)N(C)[C@@H](C2CCCC2)C(=O)N(C)[C@H](C(=O)N(C)C)CC(=O)N1C [PP2318] | A (a compound having 10 or more and less than 20 is denoted as A) | A (a compound having 10 or more and less than 20 is denoted as A) |  | 
6 | CCCOC[C@H]1C(=O)N[C@@H]([C@@H](C)CC)C(=O)N(C)CC(=O)N(C)[C@H]2C/C=C\CCN(C2=O)[C@@H](Cc2ccc(C)cc2)C(=O)N(C)CC(=O)N[C@@H](CCc2ccc(C(F)(F)F)c(OC)c2)C(=O)N2C[C@H](OCC)C[C@H]2C(=O)N(C)C2(CCC2)C(=O)N(C)[C@@H](C(CC)CC)C(=O)N(C)[C@H](C(=O)N(C)C)CC(=O)N1C [PP2323] | A (a compound having 10 or more and less than 20 is denoted as A) | A (a compound having 10 or more and less than 20 is denoted as A) |  | 
7 | CCC[C@H]1C(=O)N[C@@H]([C@@H](C)CC)C(=O)N(C2CC2)CC(=O)N(C)[C@H]2C/C=C\CCN(C2=O)[C@@H](Cc2ccc(C)cc2)C(=O)N(C)CC(=O)N[C@@H](CCc2ccc(C(F)(F)F)c(OC)c2)C(=O)N2C[C@H](OCC)C[C@H]2C(=O)N(C)C2(CCC2)C(=O)N(C)[C@@H](C(CC)CC)C(=O)N(C)[C@H](C(=O)N(C)C)CC(=O)N1C [PP2325] | A (a compound having 10 or more and less than 20 is denoted as A) | A (a compound having 10 or more and less than 20 is denoted as A) |  | 
8 | CCCOC[C@H]1C(=O)N[C@@H]([C@@H](C)CC)C(=O)N(C)CC(=O)N(C)[C@H]2C/C=C\CCN(C2=O)[C@@H](Cc2ccc(C)cc2)C(=O)N(C)CC(=O)N[C@@H](CCc2ccc(C(F)(F)F)c(OC)c2)C(=O)N2C[C@H](OCC)C[C@H]2C(=O)N(C)C2(CCC2)C(=O)N(C)[C@@H](C2CCCC2)C(=O)N(C)[C@H](C(=O)N(C)C)CC(=O)N1C [PP2326] | A (a compound having 10 or more and less than 20 is denoted as A) | B (a compound having 3 or more and less than 10 is denoted as B) |  | 
9 | CCC[C@H]1C(=O)N[C@@H]([C@@H](C)CC)C(=O)N(C2CC2)CC(=O)N(C)[C@H]2C/C=C\CCN(C2=O)[C@@H](CC2CCCCC2)C(=O)N(C)CC(=O)N[C@@H](CCc2ccc(C(F)(F)F)c(OC)c2)C(=O)N2C[C@H](OCC)C[C@H]2C(=O)N(C)C2(CCC2)C(=O)N(C)[C@@H](C2CCCC2)C(=O)N(C)[C@H](C(=O)N(C)C)CC(=O)N1C [PP2340] | B (a compound having 3 or more and less than 10 is denoted as B) | B (a compound having 3 or more and less than 10 is denoted as B) |  | 
10 | CCOC[C@H]1C(=O)N[C@@H]([C@@H](C)CC)C(=O)N(C2CC2)CC(=O)N(C)[C@H]2C/C=C\CCN(C2=O)[C@@H](CC2CCCCC2)C(=O)N(C)CC(=O)N[C@@H](CCc2ccc(C(F)(F)F)c(OC)c2)C(=O)N2C[C@H](OCC)C[C@H]2C(=O)N(C)C2(CCC2)C(=O)N(C)[C@@H](C2CCCC2)C(=O)N(C)[C@H](C(=O)N(C)C)CC(=O)N1C [PP2342] | A (a compound having 10 or more and less than 20 is denoted as A) | A (a compound having 10 or more and less than 20 is denoted as A) |  | 
11 | CCOC[C@H]1C(=O)N[C@@H]([C@@H](C)CC)C(=O)N(C2CC2)CC(=O)N(C)[C@H]2C/C=C\CCN(C2=O)[C@@H](CC2CCC(F)(F)CC2)C(=O)N(C)CC(=O)N[C@@H](CCc2ccc(C(F)(F)F)c(OC)c2)C(=O)N2C[C@H](OCC)C[C@H]2C(=O)N(C)C2(CCC2)C(=O)N(C)[C@@H](C(CC)CC)C(=O)N(C)[C@H](C(=O)N(C)C)CC(=O)N1C [PP2351] | A (a compound having 10 or more and less than 20 is denoted as A) | A (a compound having 10 or more and less than 20 is denoted as A) |  | 
12 | CCCOC[C@H]1C(=O)N[C@@H]([C@@H](C)CC)C(=O)N(C2CC2)CC(=O)N(C)[C@H]2C/C=C\CCN(C2=O)[C@@H](CC2CCC(F)(F)CC2)C(=O)N(C)CC(=O)N[C@@H](CCc2ccc(C(F)(F)F)c(OC)c2)C(=O)N2C[C@H](OCC)C[C@H]2C(=O)N(C)C2(CCC2)C(=O)N(C)[C@@H](C2CCCC2)C(=O)N(C)[C@H](C(=O)N(C)C)CC(=O)N1C [PP2354] | A (a compound having 10 or more and less than 20 is denoted as A) | A (a compound having 10 or more and less than 20 is denoted as A) |  | 
13 | CCO[C@@H]1C[C@H]2C(=O)NC3(CC(C)(C)C3)C(=O)N(C)[C@@H](C(CC)CC)C(=O)N(C)[C@H](C(=O)N(C)C)CC(=O)N(C)[C@H]3CC/C=C/c4ccc(cc4)C[C@@H](C(=O)N(C)CC(=O)N[C@@H](CCc4cc(F)c(C(F)(F)F)c(F)c4)C(=O)N2C1)N1CC/C=C\C[C@@H](C1=O)N(C)C(=O)CN(C)C(=O)[C@H]([C@@H](C)CC)NC3=O [PP2586] |  |  | A (a compound having 10 or more and less than 20 is denoted as A) | B (a compound having 3 or more and less than 10 is denoted as B)
14 | CCO[C@@H]1C[C@H]2C(=O)NC3(CC(C)(C)C3)C(=O)N(C)[C@@H](C(CC)CC)C(=O)N(C)[C@H](C(=O)N(C)C)CC(=O)N(C)[C@H]3CC/C=C/c4ccc(cc4)C[C@@H](C(=O)N(C)CC(=O)N[C@@H](CCc4ccc(Cl)c(Cl)c4)C(=O)N2C1)N1CC/C=C\C[C@@H](C1=O)N(C)C(=O)CN(C)C(=O)[C@H]([C@@H](C)CC)NC3=O [PP2589] |  |  | AA (a compound having 20 or more is denoted as AA) | A (a compound having 10 or more and less than 20 is denoted as A)
15 | CCO[C@@H]1C[C@H]2C(=O)NC3(CC(C)(C)C3)C(=O)N(C)[C@@H](C3CCCC3)C(=O)N(C)[C@H](C(=O)N(C)CC)CC(=O)N(C)[C@H]3CC/C=C/c4ccc(cc4)C[C@@H](C(=O)N(C)CC(=O)N[C@@H](CCc4ccc(Cl)c(Cl)c4)C(=O)N2C1)N1CC/C=C\C[C@@H](C1=O)N(C)C(=O)CN(C1CC1)C(=O)[C@H]([C@@H](C)CC)NC3=O [PP2598] |  |  | A (a compound having 10 or more and less than 20 is denoted as A) | A (a compound having 10 or more and less than 20 is denoted as A)
16 | CCO[C@@H]1C[C@H]2C(=O)NC3(CCC3)C(=O)N(C)[C@@H](C(CC)CC)C(=O)N(C)[C@H](C(=O)N(C)C)CC(=O)N(C)[C@H]3CCCC/C=C/c4ccc(cc4)C[C@@H](C(=O)N(C)CC(=O)N[C@@H](CCc4ccc(Cl)c(Cl)c4)C(=O)N2C1)N1CC/C=C\C[C@@H](C1=O)N(C)C(=O)CN(C1CC1)C(=O)[C@H]([C@@H](C)CC)NC3=O [PP2605] |  |  | AA (a compound having 20 or more is denoted as AA) | A (a compound having 10 or more and less than 20 is denoted as A)
